From ChEMBL document CHEMBL4346699 (Eur J Med Chem, 2019) come the findings set out here.

Bounds are passed on as bounds.

Data set [1] in a line: Tmax in Sprague-Dawley rat at 5 mg/kg, po by LC-MS/MS analysis. It is filed as ADME, organism-based. As to conditions: in vivo.
Data set [2] in a line: AUC (0 to 7 hrs) in Sprague-Dawley rat at 1 mg/kg, iv by LC-MS/MS analysis. The data set is classed as ADME, organism-based. The arrangement: dose 1 mg/kg, time < 7 hr, route intravenous. The note with it: in vivo.
Data set [3] can be described thus: Volume of distribution at steady state in Sprague-Dawley rat at 1 mg/kg, iv by LC-MS/MS analysis. The note with it: in vivo, read-out: Vdss. It is filed as ADME, organism-based.
Data set [4] is described as follows: AUC (0 to 7 hrs) in Sprague-Dawley rat at 5 mg/kg, po by LC-MS/MS analysis. It is filed as ADME, organism-based. More on the design: dose 5 mg/kg, time < 7 hr, route oral. As to conditions: in vivo.
Data set [5] in a line: Oral bioavailability in Sprague-Dawley rat at 5 mg/kg by LC-MS/MS analysis. It is filed as ADME, organism-based. The note with it: in vivo.
Data set [6] can be described thus: Clearance in Sprague-Dawley rat at 1 mg/kg, iv by LC-MS/MS analysis. The data set is classed as ADME, organism-based. The note with it: in vivo.
Data set [7] can be described thus: Half life in Sprague-Dawley rat at 1 mg/kg, iv by LC-MS/MS analysis. The data set is classed as ADME, organism-based. The note with it: in vivo.
Data set [8] is described as follows: Metabolic stability in rat microsomes assessed as parent compound remaining after 0 mins. As to conditions: read-out: Stability. It is filed as ADME, Microsome.
The nature of data set [9]: Clearance in human. The data set is classed as ADME.
The nature of data set [10]: Metabolic stability in rat microsomes assessed as parent compound remaining after 30 mins. It is filed as ADME, Microsome. As to conditions: read-out: Stability.
Data set [11] can be described thus: Clearance in rat microsomes. As to conditions: in vitro.
The nature of data set [12]: Metabolic stability in human microsomes assessed as parent compound remaining after 45 mins. It is filed as ADME, Microsome. As to conditions: read-out: Stability.
Data set [13] in a line: Metabolic stability in rat microsomes assessed as parent compound remaining after 15 mins. The note with it: read-out: Stability. It is filed as ADME, Microsome.
A short description of data set [14]: Half life in rat microsomes. The note with it: in vitro.
The nature of data set [15]: Metabolic stability in rat microsomes assessed as parent compound remaining after 45 mins. The data set is classed as ADME, Microsome. As to conditions: read-out: Stability.
Data set [16] can be described thus: Metabolic stability in rat microsomes assessed as parent compound remaining after 5 mins. It is filed as ADME, Microsome. As to conditions: read-out: Stability.
The nature of data set [17]: Metabolic stability in human microsomes assessed as parent compound remaining after 15 mins. The data set is classed as ADME, Microsome. As to conditions: read-out: Stability.
Data set [18] can be described thus: Metabolic stability in human microsomes assessed as parent compound remaining after 0 mins. The data set is classed as ADME, Microsome. As to conditions: read-out: Stability.
Data set [19] is described as follows: Metabolic stability in human microsomes assessed as parent compound remaining after 30 mins. As to conditions: read-out: Stability. The data set is classed as ADME, Microsome.
Data set [20] can be described thus: Metabolic stability in human microsomes assessed as parent compound remaining after 5 mins. It is filed as ADME, Microsome. The note with it: read-out: Stability.
The target in data set [21] is Cyclin-dependent kinase 1 (Homo sapiens, UniProt P06493).
Cyclin-dependent kinase 1, sequence (P06493 whole entry): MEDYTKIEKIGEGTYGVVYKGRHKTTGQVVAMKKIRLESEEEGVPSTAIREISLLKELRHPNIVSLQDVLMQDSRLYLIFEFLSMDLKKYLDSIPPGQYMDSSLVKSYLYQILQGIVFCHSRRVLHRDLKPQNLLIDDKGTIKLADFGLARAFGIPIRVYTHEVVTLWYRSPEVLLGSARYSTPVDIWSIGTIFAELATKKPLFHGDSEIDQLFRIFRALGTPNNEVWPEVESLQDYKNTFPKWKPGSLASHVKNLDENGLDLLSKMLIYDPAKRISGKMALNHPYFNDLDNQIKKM
Description: Inhibition of CDK1 (unknown origin)
In data set [22] the target is CDK2/Cyclin A2 (Homo sapiens, UniProt P24941). In words: Inhibition of CDK2/CyclinA (unknown origin) assessed as reduction in TAMRA tagged peptide substrate phosphorylation by fluorescence polarization assay. It is filed as protein-complex assay.
Data set [23] has as its target Calcium/calmodulin-dependent protein kinase type 1 (Homo sapiens, UniProt Q14012). In words: Inhibition of wild-type human full length CAMK1A (M1 to L370 residues) expressed in bacterial expression system assessed as residual activity at 50 nM by Kinomescan method relative to control.
Data set [24] can be described thus: Protein binding in human plasma. The data set is classed as ADME, cell-free. The note with it: read-out: PPB (converted).
Data set [25] is described as follows: Tmax in human. It is filed as ADME.
The target of data set [26] is Homeodomain-interacting protein kinase 1 (Homo sapiens, UniProt Q86Z02). The data set is described as follows: Inhibition of wild-type human partial length HIPK1 (M146 to I555 residues) expressed in mammalian expression system assessed as residual activity at 50 nM by Kinomescan method relative to control.
Homeodomain-interacting protein kinase 1, sequence (Q86Z02 whole entry, the tested form may be a part): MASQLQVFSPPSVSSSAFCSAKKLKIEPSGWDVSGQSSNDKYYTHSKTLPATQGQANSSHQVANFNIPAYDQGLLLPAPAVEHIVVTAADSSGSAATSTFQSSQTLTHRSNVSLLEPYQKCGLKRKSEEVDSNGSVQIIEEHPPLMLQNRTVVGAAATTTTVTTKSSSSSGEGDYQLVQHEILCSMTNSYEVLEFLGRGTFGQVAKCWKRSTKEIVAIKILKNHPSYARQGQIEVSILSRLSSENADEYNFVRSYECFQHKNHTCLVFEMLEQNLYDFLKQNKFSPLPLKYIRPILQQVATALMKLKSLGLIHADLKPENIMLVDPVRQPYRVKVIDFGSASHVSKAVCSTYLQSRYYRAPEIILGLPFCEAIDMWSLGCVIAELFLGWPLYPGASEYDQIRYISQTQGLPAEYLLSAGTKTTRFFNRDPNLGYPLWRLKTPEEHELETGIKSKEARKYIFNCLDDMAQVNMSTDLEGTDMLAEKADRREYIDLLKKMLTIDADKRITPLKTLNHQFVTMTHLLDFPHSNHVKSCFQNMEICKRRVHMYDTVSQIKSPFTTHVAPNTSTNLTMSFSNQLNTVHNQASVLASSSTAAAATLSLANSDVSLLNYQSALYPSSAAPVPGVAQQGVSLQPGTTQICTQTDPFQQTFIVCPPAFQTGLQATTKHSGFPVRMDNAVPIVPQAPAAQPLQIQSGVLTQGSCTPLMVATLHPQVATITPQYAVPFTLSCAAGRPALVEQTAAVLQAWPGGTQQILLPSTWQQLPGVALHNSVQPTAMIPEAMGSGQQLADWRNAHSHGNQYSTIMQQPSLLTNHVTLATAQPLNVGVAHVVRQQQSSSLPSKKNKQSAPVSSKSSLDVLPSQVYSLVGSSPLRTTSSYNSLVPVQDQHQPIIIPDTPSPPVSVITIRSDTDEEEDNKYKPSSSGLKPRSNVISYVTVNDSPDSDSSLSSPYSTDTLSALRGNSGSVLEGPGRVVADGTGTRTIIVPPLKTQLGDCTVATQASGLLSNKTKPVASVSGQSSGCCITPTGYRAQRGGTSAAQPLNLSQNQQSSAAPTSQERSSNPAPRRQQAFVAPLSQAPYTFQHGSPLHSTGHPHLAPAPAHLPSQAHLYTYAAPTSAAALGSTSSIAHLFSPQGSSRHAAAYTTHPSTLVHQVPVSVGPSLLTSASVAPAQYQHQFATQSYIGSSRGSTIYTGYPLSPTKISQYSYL
Data set [27] can be described thus: Protein binding in human plasma at 125 mg, po. As to conditions: read-out: PPB (converted). It is filed as ADME, cell-free.
Data set [28] in a line: Oral bioavailability in human at 125 mg. It is filed as ADME, organism-based. The note with it: in vivo.
Data set [29] is described as follows: Tmax in human at 125 mg, po. The data set is classed as ADME. The note with it: in vivo.

Calcium/calmodulin-dependent protein kinase type 1, sequence (Q14012 whole entry, the tested form may be a part): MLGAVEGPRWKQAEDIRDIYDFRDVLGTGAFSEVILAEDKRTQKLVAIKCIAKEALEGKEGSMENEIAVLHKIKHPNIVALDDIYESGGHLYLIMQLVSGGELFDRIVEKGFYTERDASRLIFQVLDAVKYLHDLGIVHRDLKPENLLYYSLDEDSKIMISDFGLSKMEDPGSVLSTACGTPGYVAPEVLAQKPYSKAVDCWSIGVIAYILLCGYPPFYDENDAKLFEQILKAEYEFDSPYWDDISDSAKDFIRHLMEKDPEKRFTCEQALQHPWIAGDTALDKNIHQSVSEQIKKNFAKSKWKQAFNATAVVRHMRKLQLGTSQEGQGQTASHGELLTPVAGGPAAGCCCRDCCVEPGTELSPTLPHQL

As to `[2H]C([2H])([2H])N(C(=O)c1cc2cnc(Nc3ccc(N4CCNCC4)cn3)nc2n1C1CCCC1)C([2H])([2H])[2H]`, the Tmax in [1] was 2 h. Moreover, the AUC in [2] (7 h) was 0.883 µM·h; in data set [4] it was 5.432 µM·h. In addition, the Vd in [3] amounted to 8.6 L/kg. For the same compound, the F in data set [5] is 55%. The same compound registered a clearance in data set [6] of 37 mL/min/kg. This compound had a half-life in data set [7] of 3.2 h.
Take `[2H]C([2H])([2H])C([2H])([2H])N1C([2H])([2H])C([2H])([2H])N(Cc2ccc(Nc3ncc(F)c(-c4cc(F)c5nc(C)n(C(C)C)c5c4)n3)nc2)C([2H])([2H])C1([2H])[2H]`: the remaining at 0 h in data set [8] and in data set [18] was 100% throughout. The clearance was 130 mL/min/kg in data set [9] and 43.3 mL/min/kg in data set [11]. For the same compound, the remaining at 0.5 h in [10] amounted to 69.9%; in [19] it was 21.3%. For the same compound, the figures for the remaining at 0.75 h in [12] and in data set [15] were 9.86% and 57.6%, respectively. In addition, the remaining at 0.25 h in data set [13] came out at 86%; in data set [17], 47.9%. This compound showed a half-life in [14] of 0.956 h. The remaining at 5 min in data set [16] is 92.2%; in data set [20], 80.3%.
Consider `[2H]c1nc(Nc2ncc(F)c(-c3cc(F)c4nc(C)n(C(C)C)c4c3)n2)c([2H])c([2H])c1CN1CCN(C([2H])([2H])C([2H])([2H])[2H])CC1`, for which the remaining at 0 h in data set [8] and in data set [18] was 100% each time. The clearance in data set [9] was found to be 155 mL/min/kg; in data set [11], 52.7 mL/min/kg. Also, the remaining at 0.5 h in data set [10] was 65.9%; in [19] it was 16.4%. Besides, the remaining at 0.75 h in data set [12] came out at 6.48%; in data set [15] it was 51.3%. Further, the values for the remaining at 0.25 h in [13] and in [17] were 83% and 43.3%, respectively. In data set [14], this compound showed a half-life of 0.785 h. Also, the results for the remaining at 5 min in data set [16] and in data set [20] were 92.7% and 79.4%, respectively.
Turning to `[2H]C([2H])([2H])C([2H])([2H])N1CCN(Cc2ccc(Nc3ncc(F)c(-c4cc(F)c5nc(C)n(C(C)C)c5c4)n3)nc2)CC1`, the remaining at 0 h in data set [8] and in [18] was 100% in each case. Further, the results for the clearance in data set [9] and in [11] were 156 mL/min/kg and 52.8 mL/min/kg, respectively. Besides, the remaining at 0.5 h in data set [10] was 66.9%; in data set [19] it was 16%. Also, the remaining at 0.75 h in data set [12] was determined as 6.21%; in data set [15], 51.3%. Besides, the remaining at 0.25 h was 83.4% in data set [13] and 42.4% in [17]. In data set [14], this compound displayed a half-life of 0.784 h. The remaining at 5 min came out at 93.8% in data set [16] and 77.7% in data set [20].
With `CN(C)C(=O)c1cc2cnc(Nc3ccc(N4CCNCC4)cc3)nc2n1C1CCCC1`, the 50% inhibitory concentration (IC50) in data set [21] was greater than 1600 nM; in [22], greater than 1400 nM.
As to `CCN1CCN(Cc2ccc(Nc3ncc(F)c(-c4cc(F)c5nc(C)n(C(C)C)c5c4)n3)nc2)CC1` [ABEMACICLIB], the remaining at 0 h in [8] and in [18] was 100% each time. The clearance in [9] was 172 mL/min/kg; in data set [11], 62.9 mL/min/kg. The remaining at 0.5 h in data set [10] came out at 61.6%; in [19], 13%. The remaining at 0.75 h in data set [12] came to 4.76%; in data set [15], 45.6%. The remaining at 0.25 h in data set [13] came to 81%; in data set [17] it was 38.9%. Also, the half-life in data set [14] was 0.658 h. The inhibitory constant (Ki) in data set [23] and in data set [26] was less than 10 nM in each case. Besides, the figures for the remaining at 5 min in data set [16] and in [20] were 94.1% and 76.1%, respectively. Moreover, the fraction unbound in data set [24] was 0.04. In addition, in data set [25], the Tmax was in the range of 4 to 24 h.
Consider `CC(=O)c1c(C)c2cnc(Nc3ccc(N4CCNCC4)cn3)nc2n(C2CCCC2)c1=O` [PALBOCICLIB], for which, in data set [27], the fraction unbound was 0.15. For the same compound, the bioavailability in [28] worked out at 46%. Also, the time of peak concentration (Tmax) in [29] was 6 to 12 h.
`CN(C)C(=O)c1cc2cnc(Nc3ccc(N4CCNCC4)cn3)nc2n1C1CCCC1` [RIBOCICLIB]: the Tmax is 1.5 h in [1] and 1 to 4 h in data set [25]. In data set [2] (Sprague-Dawley), the AUC(0-t) at 7 h turned out to be 1.03 µM·h. Besides, the fraction unbound in data set [24] was 0.3. For the same compound, the AUC in data set [4] was determined as 1.618 µM·h. This compound also gave a half-life in data set [7] of 2.3 h.
